Test results from patent US7176281B2 (priority 2003, dated 2007).
Where a SMILES comes first, the peptide text is derived from it.

Assays:
[1] = tested on: murine macrophage cell line J774; experiment: LPS- or TNF-induced PGE2 production in J774 macrophages; type: cell-based, mouse; conditions: J774 cells, 20 h
Experimental: The murine macrophage cell line J774 (ATCC, USA) was cultured at 37° C. in humidified 5% CO2/95% air in Dulbecco's Modified Eagle's Medium (DMEM) containing 10% foetal bovine serum, 2 mM glutamine, 20 mM Hepes, 100 Ul/ml penicillin and 100 μg/ml streptomycin. After growing to confluence, the cells were dislodged by scrapping, plated in 12 culture wells at a density of 5×10^5 cells/ml per well, and allowed to adhere for 2 h. […] Culture medium supernatants were collected after centrifugation (10,000 g, 4° C., 15 min) and stored at −80° C. prior to measurement of PGE2, which was done according to the manufacturer's instructions (EIA kit-monoclonal, Cayman Chemical, USA).
FIGS. 13A and 13B show modulation of LPS- and TNF-stimulated PGE2 release. […] Supernatants were collected, and PGE2 release in the medium was determined by ELISA. Results are shown as the mean±SEM of 5 experiments performed in duplicate. **P<0.01 between inhibitor-treated and untreated cultures.

[2] = biological target: T1, Group IIA purified human synovial sPLA2 (Homo sapiens, UniProt P14555); experiment: In vitro inhibition of purified human synovial sPLA2, 3H-labelled E. coli membranes; type: biochemical; conditions: fixed peptide concentration 5 μM
T1 construct: purchased Cayman, USA
T1 sequence (P14555 21-144): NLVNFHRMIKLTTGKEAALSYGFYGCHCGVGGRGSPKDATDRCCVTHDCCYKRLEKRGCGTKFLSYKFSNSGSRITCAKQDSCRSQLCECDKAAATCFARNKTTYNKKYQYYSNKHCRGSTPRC

[3] = tested on: Tg197 transgenic mice (chronic inflammatory polyarthritis); experiment: Tg197 transgenic mouse arthritis model, experiment 1 (5 weeks); type: in vivo; conditions: for % of total joints, AS (1) / % of total joints, AS (1.5–2): 5 week post-treatment; for % of total at indicated HS scores, HS 2 / % of total at indicated HS scores, HS 3 / % of total at indicated HS scores, HS 4 / Mean HS ± SEM: 5 weeks
Experimental: The candidate peptide P-NT.II was dissolved in dimethyl sulfoxide (DMSO) at a final concentration of 3 mg/mL. Two sets of experiments were conducted. In Experiment 1 (n=28 Transgenic (Tg197)+7 wild type (wt), peptide-treated animals (Group B) received intra-peritoneal (i.p) injections of 10 mg/kg, thrice weekly for 5 consecutive weeks, while the vehicle controls (Group E) were injected with DMSO (3 mL/kg) only. Non-transgenic (wild type) mice in different groups (C, D) were similarly treated either with the same i.p dose of peptide or DMSO. At the end of the experiment following 5 weeks of peptide injection, each Tg197 mice received a total dose of 1.8 mg of peptide P-NT.II (0.9 μmole).
Disease monitoring was done by gross observations based on body weight measurements and arthritis scoring, which were done twice weekly after treatment until all the animals were sacrificed at 5th week in experiment 1, or at 4th week in experiment 2. Arthritis score (AS) was recorded on both ankle joints, and average scores as shown below were taken: • 0=no arthritis (normal appearance and flexion); • 0.5=onset of arthritis (mild joint swelling); • 1.0=mild arthritis (joint distortion); • 1.5=as above+finger deformation, less strength on flexion; • […]=moderate arthritis (severe swelling, joint deformation, no strength on flexion); • 2.5=as above+finger deformation in paws; • 3.0=heavy arthritis (ankylosis detected on flexion and severely impaired movement).
For histopathological scoring, both hind legs were dissected and fixed in 10% formaldehyde overnight, decalcified in citrate-buffered formic acid for 3 days at 4° C., and processed for light microscopy (LM). • Histopathological score (HS) was evaluated as follows: • 0=no detectable pathology, • 1=hyperplasia of the synovial membrane and presence of polymorphonuclear infiltrates • 2=pannus and fibrous tissue formation and focal subchondrial bone erosion • 3=articular cartilage destruction and bone erosion • 4=articular cartilage destruction and extensive bone erosion.
Anti-inflammatory activity of the candidate peptide P-NT.II was examined as a new treatment option for modulating rheumatoid arthritis (RA) in a transgenic animal model. To evaluate the potential effectiveness of the peptide as prophylaxis against RA, two separate experiments were performed in 4 week-old transgenic (Tg197) mice and non-transgenic wild-type (wt) mice. These transgenic mice (Tg197) express human tumor necrosis factor (TNFα), a cytokine which has been implicated in the pathogenesis of human RA.

[4] = biological target: T2, 100-kDa human recombinant cytosolic form of PLA2 (cPLA2) (Homo sapiens, UniProt P47712); experiment: PLA2 inhibition, E. coli membrane assay, cPLA2; type: biochemical; conditions: inhibition
T2 sequence (P47712 1-749): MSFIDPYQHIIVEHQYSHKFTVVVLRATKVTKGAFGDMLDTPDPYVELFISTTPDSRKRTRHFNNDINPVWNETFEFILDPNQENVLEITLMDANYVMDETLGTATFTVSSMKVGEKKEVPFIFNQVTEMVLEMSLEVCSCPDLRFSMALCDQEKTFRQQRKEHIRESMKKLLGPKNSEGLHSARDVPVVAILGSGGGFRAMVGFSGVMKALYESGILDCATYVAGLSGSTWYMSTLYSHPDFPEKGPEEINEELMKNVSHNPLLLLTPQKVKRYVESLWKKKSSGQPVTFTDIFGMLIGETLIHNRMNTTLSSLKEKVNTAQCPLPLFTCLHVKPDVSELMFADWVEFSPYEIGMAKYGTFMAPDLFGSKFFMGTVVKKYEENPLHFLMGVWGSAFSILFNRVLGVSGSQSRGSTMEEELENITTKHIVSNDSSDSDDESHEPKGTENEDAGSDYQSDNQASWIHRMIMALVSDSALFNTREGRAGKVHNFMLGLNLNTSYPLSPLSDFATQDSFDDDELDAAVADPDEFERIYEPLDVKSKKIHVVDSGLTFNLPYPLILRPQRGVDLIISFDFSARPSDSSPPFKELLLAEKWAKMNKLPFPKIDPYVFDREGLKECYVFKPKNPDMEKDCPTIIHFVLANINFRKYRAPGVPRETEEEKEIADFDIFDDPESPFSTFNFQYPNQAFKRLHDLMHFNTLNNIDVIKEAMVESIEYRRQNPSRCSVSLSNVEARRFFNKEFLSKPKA

[5] = tested on: mammalian (human and rat) type IIA sPLA2; type: binding

CC[C@H](C)[C@H](NC(=O)[C@H](Cc1ccc(O)cc1)NC(=O)[C@@H](NC(=O)CNC(=O)[C@H](CC(=O)O)NC(=O)[C@H](Cc1c[nH]c2ccccc12)NC(=O)[C@@H](NC(=O)[C@H](Cc1c[nH]cn1)NC(=O)[C@@H](NC(=O)[C@H](CC(=O)O)NC(=O)[C@@H](NC(=O)[C@H](CCCNC(=N)N)NC(=O)CNC(=O)[C@@H](N)CC(C)C)C(C)C)[C@@H](C)CC)C(C)C)C(C)C)C(=O)N[C@@H](CCCNC(=N)N)C(=O)NCC(=O)N[C@@H](CCCNC(=N)N)C(=O)O [P-NT.II] (H-LGRVDIHVWDGVYIRGR-OH; N-terminus and C-terminus assumed)
LPS- or TNF-induced PGE2 production [1]: dose-dependently inhibit
inhibition at 5 µM [2]: 55.6%
% of total joints, AS (1) ([3]; 4 M + 3 F, 14 joints): 50%
% of total joints, AS (1.5–2) ([3]; 4 M + 3 F, 14 joints): 50%
% of total at indicated HS scores, HS 2 ([3]; 4 M + 3 F, 14 joints): 35.7%
% of total at indicated HS scores, HS 3 ([3]; 4 M + 3 F, 14 joints): 64.3%
% of total at indicated HS scores, HS 4 ([3]; 4 M + 3 F, 14 joints): 0%
Mean HS ± SEM ([3]; 4 M + 3 F, 14 joints): 2.71 ± 0.15
% of total at indicated HS scores, HS 2 ([3]; 4 M, 8 joints, 10 mg/kg i.p. thrice weekly): 62.5%
% of total joints, AS (1) ([3]; 4 M, 8 joints): 87%
% of total joints, AS (1.5–2) ([3]; 4 M, 8 joints): 13%
% of total at indicated HS scores, HS 3 ([3]; 4 M, 8 joints): 37.5%
% of total at indicated HS scores, HS 4 ([3]; 4 M, 8 joints): 0%
Mean HS ± SEM ([3]; 4 M, 8 joints): 2.37 ± 0.18
effect of peptide on joint damage ([3]; females, P>0.05): less evident
histological scores compared with untreated or DMSO-treated groups ([3]; male Tg197 mice, P<0.001): significantly lower histological scores
histological scores compared with untreated or DMSO-treated mice ([3]; males + females, P<0.05): significantly lower histological scores
selectivity for sPLA2 over cPLA2 [4]: five-fold
competition with labeled P-NT.II for binding to type IIA sPLA2 [5]: inhibited
